# Reference: patent US11583525B2, “Geranylgeranyltransferase I inhibitor for treatment of a PTEN defective cancer” (H. LEE MOFFITT CANCER CENTER AND RESEARCH INSTITUTE, INC., priority 2017, dated 2023)
# Key:
# Format in all cases: cell-based, human
# FBXL2 and IP3R3 = assay: FBXL2-IP3R3 co-immunoprecipitation after ATP stimulation; details: ATP for 30 min; particularly upon proteasome inhibition
# Procedure: FIGS. 8A, 8B, 8C, 8D, 8E, 8F, 8G, 8H, 8I, and 8J show Mapping of the FBXL2-binding domain in IP3R3, and evidence that the N-terminal suppressor domain inhibits the IP3R3-FBXL2 interaction. […] Binding of IP3R3 to FBXL2 is indicated with the symbol (+). […] Whole-cell lysates (WCL) were immunoprecipitated (IP) with anti-Flag resin and proteins were immunoblotted as indicated. This experiment was performed twice. […] Sixteen hours after transfection, cells were incubated with MG132 for 3 h before stimulation with ATP for 30 min Whole-cell lysates were immunoprecipitated (IP) with an anti-HA resin and proteins were immunoblotted as indicated. This experiment was performed twice. […] Cells were subsequently treated with or without ATP for 30 min Whole-cell lysates were immunoprecipitated (IP) with an anti-Flag resin and proteins were immunoblotted as indicated. […] P values were calculated by one-way ANOVA and multiple-comparisons test. Error bars indicate s.e.m. […] It has been shown that removal of the N-terminal suppressor domain (amino acids 1-226) increases the binding of IP3 to the IP3 binding core domain (amino acids 227-579), and IP3 binding evokes conformational changes that open the suppressor domain29-32. These conformational changes may allow FBXL2 to access the degron of IP3R3 (that is, the amino acid region required for binding to FBXL2). […]
# IP3R3 [1] = assay: IP3R3 degradation in serum-starved and exponentially growing NHFs treated with ATP; details: NHFs cultured in presence or absence of serum
# IP3R3 [2] = assay: Serum-mediated degradation of IP3R3 in serum-starved, serum re-stimulated NHFs (immunoblotting); details: NHFs serum-starved 72 h, re-stimulated with serum; 10 μM MG132, 10 μM Eer1
# Procedure: 24 h post-transfection, cells were treated with MG132 for 3 h before harvesting for immunoprecipitation and immunoblotting as indicated. WCL, whole-cell lysate from untransfected cells. […] After harvesting, cells were lysed, and cell membranes (CM) were isolated and immunoprecipitated with either a normal mouse IgG or an anti-Flag antibody. Subsequently, immunoprecipitates were analysed by immunoblotting as indicated. The results of these experiments (n=2) indicate that FBXL2 is incorporated into a complete SCF ligase that binds its substrate(s) at cellular membranes. […] After harvesting, cells were lysed and cytoplasmic (CYTO) and cell membrane (CM) fractions were isolated and analysed by immunoblotting as indicated. Actin and calnexin are used as markers for cytoplasmic and cell membrane fractions, respectively. This experiment was performed twice. […] 24 h post-transfection, where indicated, cells were treated with MG132 for 3 h before harvesting for immunoprecipitation and immunoblotting. Ned. CUL1, neddylated CUL1. […] The experiment was performed in the presence or absence of MG132 as indicated. Whole-cell lysates were immunoblotted as indicated. The asterisk indicates a non-specific band. This experiment was performed twice. […] P values were calculated by unpaired t-test. Error bars indicate s.e.m. […] Error bars indicate s.e.m. The values represent the ratios between FBXL2 and GAPDH mRNAs. […] Cells were subsequently stimulated with medium containing serum and harvested at the indicated times for immunoblotting. […] Error bars indicate s.e.m. […] Cells were subsequently stimulated with medium containing serum and harvested at the indicated time points for immunoblotting. […] Error bars indicate s.e.m. […] Exon 2 and exon 3 refer to the human FBXL2 gene in NC_000003.12 (GRCh38.p7 (Gene Bank ID: 3129728)). […]
# FIGS. 6A, 6B, 6C, 6D, 6E, 6F, 6G, and 6H that the degradation of IP3R3 is dependent on FBXL2 localization to cell membranes and on the segregase activity of p97. […] Samples were analysed by immunoblotting with the indicated antibodies. […]
# NHFs = assay: H2O2-induced apoptosis in NHFs transfected with FBXL2 siRNA (automated nuclei count); details: pre-treated for 30 min with cyclosporin A (1 μM), H2O2 16 h
# Procedure: FIGS. 1A, 1B, 1C, 1D, 1E, 1F, 1G, and 1H show FBXL2-mediated degradation of IP3R3 controls Ca2+ flux and sensitivity to apoptosis. […] Left, two representative traces. Right, quantification of three independent experiments. P values were calculated by one-way ANOVA and multiple-comparisons test. Error bars indicate s.e.m. 1b, 1c, and 1d, Apoptosis evaluated after treatment with H2O2 using automated nuclei count analysis of twenty randomly chosen fields following a 16 h treatment (1b), immunoblot detection of cleaved PARP and cleaved caspase-3 following a 3 h treatment (1c), and automated analysis of cells with released cytochrome c (Cyt c) from 80 randomly chosen fields following a 3 h treatment (1d). […] P values were calculated by one-way ANOVA and multiple-comparisons test. […] Left, representative traces show concentrations of cytosolic Ca2+ measured with aequorin. Right, quantification of three independent experiments. P values were calculated by one-way ANOVA and multiple-comparisons test. […] Apoptosis shown in 1h was evaluated as in 1b, except that H2O2 treatment was for 5 h. Analysis of cytochrome c release shown in 1i was evaluated as in 1d. P values were calculated by unpaired t-test. […]
# Detection of cell death in cell systems. […] The mean fluorescence intensities and standard deviations of […] cytochrome c were evaluated in comparison to corresponding controls. […]
molecule,measurement,setting,value
Nc1ncnc2c1ncn2[C@@H]1O[C@H](COP(=O)(O)OP(=O)(O)OP(=O)(O)O)[C@@H](O)[C@H]1O [ATP],binding between FBXL2 and IP3R3,FBXL2 and IP3R3,increased the binding between FBXL2 and IP3R3
same,degradation of IP3R3,IP3R3 [1],"promoted the degradation of IP3R3 in cells cultured in the presence, but not in the absence, of serum"
"CC1(C)C(N(O)C(=O)Nc2ccc(Cl)cc2)N(c2ccc(Cl)cc2)C(=O)N1CC(=O)N/N=C/C=C/c1ccc([N+](=O)[O-])o1 (centres unmarked) [Eer1, Eeyarestatin 1]",IP3R3 levels / degradation after serum re-stimulation,IP3R3 [2],blocked IP3R3 degradation
CC(=O)N[C@@H](CSC(=O)[C@]1([C@@H](O)C(C)C)NC(=O)[C@H](C)[C@@H]1O)C(=O)O [lactacystin],IP3R3 levels / degradation after serum re-stimulation,IP3R3 [2],much less
cyclosporin-A,sensitization to H2O2 by FBXL2 silencing,NHFs,abolished the sensitization to H2O2 by FBXL2 silencing
